Here are results for 13 compounds from US6673788B2, “Electrophilic ketones for the treatment of herpesvirus infections” (G. D. Searle & Co., priority 1996, dated 2004).

Read-outs that look alike come from different tables or passages of the source.

A word on the IC50: it is the concentration that inhibits the measured activity by half. A higher IC50 goes with lower potency. For orientation: melting point means the temperature, or range, at which the solid turns liquid.

The target of data set [1] is HCMV protease (Assemblin) (Human cytomegalovirus, UniProt P16753). Description: Enzymatic assay for HCMV protease (assemblin) inhibitors. The conditions noted are these: pNA substrate, 30 min preincubation. The class given is biochemical. The method, then: Assemblin protease activity was determined using a chromogenic para-nitroanilide (pNA) substrate based on the hCMV maturation cleavage site, succinyl-AGVVNA-para-nitroanilide. […] Potential protease inhibitors were dissolved in DMSO and 10 μL were added to the wells of a 96-well plate (Dynatech, Immulon 1). Enzyme was diluted to 4.8 μg/mL in assay buffer (10 mM sodium phosphate, pH 7.4, 150 mM sodium acetate, 0.1% CHAPS, 20% glycerol) and 100 μL were added to each well. Following a 30 minute incubation at room temperature, 50 μL substrate (1 part 20 mM succinyl-AGVVNA-paranitroanilide (SEQID:1) in DMSO plus 9 parts assay buffer) were added, and periodic readings taken in a microplate reader at 405 nm relative to 650 nm. Activities were expressed as milliabsorbance unit (mAU) change per minute. Inhibitor potency was determined by comparison with incubations lacking inhibitor, which under these conditions gave an increase of 0.5-1 mAU/min. No increase was seen when enzyme was omitted. Results [IC50 (μM)] are included in Table 1.
The construction also encoded six additional histidine residues at the amino terminus of the protease. These additional histidine residues provided an affinity ligand by which it was purified using nickel-nitriloacetic acid-agarose (Qiagen).
The purified protease was stored as a 1-3 mg/ml stock solution in 20 mM HEPES buffer, pH 7.4; containing 20% (v/v) glycerol. This stock was diluted with assay buffer to 4.8 μg/ml. A 100 μL aliquot of this solution was used in the enzyme reaction.
A specific substrate was synthesized based on the cleavage specificity of HCMV protease at the “maturation site” of the assembly protein (F. Liu and B. Roizman, J. Virol., 65, 5149 (1991), and A. Welch, et al, J. Virol., 65, 4091 (1991)). The assembly protein maturation site has the sequence . . . AGVVNA*SCRLATA . . .; the substrate used was succinyl-AGVVNA-PNA (SEQID:1) which was prepared by standard peptide synthetic methods such as that described in Bodansky and Bodansky, “The Practice of Peptide Synthesis” (1984), and was stored as a stock solution at 20 mM in dimethyl sulfoxide. This was diluted 10-fold with assay buffer to give a concentration of 2 mM just before use. An aliquot of 50 μL was used in the reaction
An assay Buffer (10 mM sodium phosphate buffer, pH 7.4; 150 mM sodium acetate; 0.1% CHAPS; and 20% (v/v) glycerol) was used to dilute stock solutions of enzyme and substrate.

The target in data set [2] is T1, Bovine pancreas α-chymotrypsin (Bos taurus, UniProt P00766, DEL14-15/DEL147-148).
T1 construct: purchased Sigma type II; host or cells: bovine pancreas
Nature of the data set: Chymotrypsin assay. The class given is biochemical. The method, then:
The chymotrypsin assay was modified from the method of Delmar et al [Anal. Biochem., 99, 316-320 (1979)]. Bovine pancreas α-chymotrypsin (type II, Sigma) was dissolved in 0.001 N HCl at 1 mg/ml and further diluted 1/600 in assay buffer (0.1 M Tris, pH 7.8, containing 0.1 M CaCl2) before use. 20 μl of test compound in DMSO (or DMSO alone), 100 μl of assay buffer and 30 μl of enzyme were added to 96 well plates, mixed and pre-incubated for 30 minutes at ambient temperature. Reaction was initiated by addition of 50 μl of 0.2 mM N-succinyl-Ala-Ala-Pro-Phe-p-nitroanilide (Sigma; 2 mM in DMSO diluted 1/10 in assay buffer before use). The increase in absorbance at 405 nm was monitored for 10 minutes with a Biotek EL340 plate reader.

In data set [3] the test system is human foreskin fibroblasts. The class given is cell-based. The text has this:
(§1) These complimentary assays tested the ability of a compound to inhibit the production of new virus and the toxicity of the compound to the host cells. It was important that both assays be performed simultaneously in order to compare the results directly since, toxicity may indirectly reduce viral yield.
Viral yield was estimated by measuring the amount of a viral antigen produced 4 days post infection with a monoclonal antibody to an abundant “immediate early” viral protein. An enzyme-linked (horseradish peroxidase) secondary antibody specific to the primary (mouse) antibody was used to measure the amount of viral antigen. Test compounds were diluted to 2-times the desired final concentration in DMEM+5% FBS. One hundred microliters of this solution was placed in each well of a 96-well plate. This was performed once for the antiviral 96-well plate and again for a cytotoxicity plate. Two controls were also included for both plates; a no drug control and a no virus control. Ganciclovir was routinely tested in antiviral and cytotoxicity plates as a reference standard because it has known antiviral activity for HCMV. All cells were prepared by harvesting human foreskin fibroblasts, with trypsin and re-suspending at a concentration of 5×10^5 cells per ml in DMEM. Infected cells were prepared by infecting these with HCMV (strain AD169) at a multiplicity of infection=0.2. One hundred microliters of uninfected cells (5×10^4 cells) were added to the appropriate wells of the cytotoxicity plate. In a similar manner 100 μl of infected cells (5×10^4 cells) were added to the appropriate wells of the antiviral plate. […]
In this assay, HCMV replication was monitored by the production of E. coli beta-galactosidase by the engineered virus RC256 [Spaete and Mocarski, Proc. Nat. […] The reaction was stopped with 100 μl 1M CAPS buffer, pH=11.0, per well and the optical density was read at 410 nanometers. Ganciclovir was used as a positive control and the EC50 was determined as described above for the HCMV ELISA. […]

In data set [4] the test system is human foreskin fibroblasts. The class given is cell-based. To be noted: 96 h.
Text: as §1
Viral yield was estimated by measuring the amount of a viral antigen produced 4 days post infection with a monoclonal antibody to an abundant “immediate early” viral protein. An enzyme-linked (horseradish peroxidase) secondary antibody specific to the primary (mouse) antibody was used to measure the amount of viral antigen. Test compounds were diluted to 2-times the desired final concentration in DMEM+5% FBS. One hundred microliters of this solution was placed in each well of a 96-well plate. This was performed once for the antiviral 96-well plate and again for a cytotoxicity plate. Two controls were also included for both plates; a no drug control and a no virus control. Ganciclovir was routinely tested in antiviral and cytotoxicity plates as a reference standard because it has known antiviral activity for HCMV. All cells were prepared by harvesting human foreskin fibroblasts, with trypsin and re-suspending at a concentration of 5×10^5 cells per ml in DMEM. Infected cells were prepared by infecting these with HCMV (strain AD169) at a multiplicity of infection=0.2. […]

Chain of HCMV protease (Assemblin) (P16753 1-256): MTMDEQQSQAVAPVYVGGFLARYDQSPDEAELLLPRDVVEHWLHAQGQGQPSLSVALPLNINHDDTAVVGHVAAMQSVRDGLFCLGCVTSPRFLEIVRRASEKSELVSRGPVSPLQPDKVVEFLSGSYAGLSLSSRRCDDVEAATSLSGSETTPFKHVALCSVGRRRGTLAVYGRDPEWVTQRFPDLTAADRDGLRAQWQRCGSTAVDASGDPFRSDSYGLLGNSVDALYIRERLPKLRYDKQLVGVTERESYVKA

`O=C(Nc1ccccc1C(=O)C(F)(F)F)c1cc2ccccc2o1` [Example 16, N-[2-(2,2,2-Trifluoro-1-oxoethyl)phenyl]benzofuranyl-2-carboxamide] showed a melting point of 130 to 132 °C. In addition, half-maximal inhibition in data set [1] (IC50) required 36 µM.

Consider `O=C(Nc1ccccc1C(=O)C(F)(F)F)c1cc2ccccc2s1` [Example 9, N-[2-(2,2,2-Trifluoro-1-oxoethyl)phenyl]-1-benzothiophene-2-carboxamide], for which the IC50 in data set [1] was found to be 26 µM. Besides, the “Chymotrypsin % @ Conc. (μM)” value in data set [2] (@ 100 μM) turned out to be 48% @ 100. Further, the “Antiviral Activity TD50” value in data set [3] (3 days) was above 100 µM.

With `O=C(Nc1ccc(I)cc1C(=O)C(F)(F)F)c1ccco1` [Example 13, N-[4-Iodo-2-(2,2,2-trifluoro-1-oxoethyl)phenyl]furan-2-carboxamide], in data set [1], the IC50 stood at 8.3 µM. Also, the “Antiviral Activity TD50” value in data set [3] was above 100 µM.

Take `O=C(Nc1ccccc1C(=O)C(F)(F)F)c1cc2ccccc2[nH]1` [Example 15, N-[2-(2,2,2-Trifluoro-1-oxoethyl)phenyl]indolyl-2-carboxamide]: the melting point was in the range of 188 to 193 °C.

Regarding `COc1ccccc1C(=O)Nc1ccccc1C(=O)C(F)(F)C(=O)NC(C)C` [Example 17, N-[2-(3-(2-Propylamino)-3-oxo-2,2-difluoro-1-oxopropyl)phenyl]2-methoxyphenylcarboxamide], the melting point was in the range of 131.5 to 132 °C. This compound also had an IC50 in data set [1] of 8.5 µM.

As for `O=C(Nc1ccccc1C(=O)C(F)(F)F)C(F)(F)F` [Example 10, α,α,α-Trifluoro-N-[2-(2,2,2-trifluoro-1-oxoethyl)phenyl]acetamide], the “Antiviral Activity TD50 (μM)” value in data set [4] is reported as >100/>100 μM.

For `O=C(COc1ccc(Cl)cc1)Nc1ccccc1C(=O)C(F)(F)F` [Example 14, N-[2-(2,2,2-Trifluoro-1-oxoethyl)phenyl]4-chlorophenoxyacetamide], the melting point fell in the range of 134 to 135 °C.

In the case of `O=C(Nc1ccccc1C(=O)C(F)(F)F)c1cnccn1` [Example 5, N-[2-(2,2,2-Trifluoro-1-oxoethyl)phenyl]pyrazine-2-carboxamide], in data set [1], the IC50 turned out to be 3.7 µM. Further, in data set [2] (@ 300 μM), the “Chymotrypsin % @ Conc. (μM)” value stood at 0% @ 300. Further, the “Antiviral Activity TD50” value in data set [3] (3 days) is above 100 µM.

Regarding `O=C(CCc1ccccc1)Nc1ccccc1C(=O)C(F)(F)F` [Example 4, N-[2-(2,2,2-Trifluoro-1-oxoethyl)phenyl]benzenepropanamide], half-maximal inhibition in data set [1] (IC50) required 49 µM.

The compound `O=C(Nc1ccccc1C(=O)C(F)(F)F)c1ccco1` [Example 1, N-[2-(2,2,2-Trifluoro-1-oxoethyl)phenyl]furan-2-carboxamide] showed an IC50 in data set [1] of 7.7 µM. Besides, in data set [2] (@ 300 μM), the “Chymotrypsin % @ Conc. (μM)” value is reported as 0% @ 300.

In data set [1], `O=C(Nc1ccccc1C(=O)C(F)(F)F)OCc1ccccc1` [Example 6, Phenylmethyl N-[2-(2,2,2-trifluoro-1-oxoethyl)phenyl]carbamate] came in with an IC50 of 17 µM.

`O=C(CCc1ccccc1)Nc1cc(F)ccc1C(=O)C(F)(F)F` [Example 2, N-[5-Fluoro-2-(2,2,2-trifluoro-1-oxoethyl)phenyl]benzenepropanamide]: the IC50 in data set [1] came out at 5.3 µM.

As for `O=C(CCc1ccccc1)Nc1cc([N+](=O)[O-])ccc1C(=O)C(F)(F)F` [Example 7, N-[5-Nitro-2-[2,2,2-trifluoro-1-oxoethyl)phenyl]benzenepropanamide], in data set [4], the “Antiviral Activity TD50” value is above 100 µM.
